In patent publication US9072734B2, “Quaternary ammonium salt compounds” (Teijin Pharma Limited, priority 2009, dated 2015):
Counter-ions that a name gives are not always drawn.

What was measured:
[1] = molecular target: T1, human M3 muscarinic receptor (Homo sapiens, UniProt P20309); experiment: Inhibitory effect on methacholine-induced calcium influx, FLIPR assay, CHO-K1 cells stably expressing the human M3 muscarinic receptor; format: cell-based; settings: inhibition of calcium influx induced by methacholine
T1 construct: expressed in transfected cells; host or cells: CHO-K1
Source text: Muscarinic receptor subtypes (M1, M3 and M5 receptors), which couple to Gq proteins, activate the phospholipase C (PLC) pathway upon agonist binding to the receptor. As a result, the activated PLC hydrolyzes phosphatidyl inositol diphosphate (PIP2) to diacyl glycerol (DAG) and […] (IP3), which in turn generates calcium release from intracellular stores, i.e., endoplasmic and sarcoplasmic reticula. By utilizing FLIPR (Molecular Devices, Inc.) assay in which a calcium sensitive dye (Component A) is used that fluoresces when free calcium binds, the increase in intracellular calcium is measured on the basis of the change in the fluorescence intensity.
Methacholine was added to CHO-K1 cells stably expressing the human M3 muscarinic receptor to induce calcium influx and evaluate the inhibitory effect of test compounds. In the experiment, a FLIPR Calcium assay kit (Molecular Devices, Inc.) was used.
CHO-K1 cells stably expressing the human M3 muscarinic receptor suspended in Ham's F-12 media (Invitrogen, Co.) containing 10% fetal bovine serum (FBS) were seeded into 96-well FLIPR plates at a volume of 100 μL/well. Next day, 60 μL/well of Non-wash-dye solution (Hank's buffered salt solution, HBSS, containing 20 mM HEPES and 6.5 mM probenecid) was added to the cells, which were then incubated for an hour at 37° C. in the presence of 5% carbon dioxide. 20 μL of 10 concentrations of test compound solutions (HBSS containing 1% DMSO, 20 mM HEPES, 2.5 mM probenecid and 0.05% bovine serum albumin, BSA) prepared at concentrations in a range of 0.01-1000 nM with 2-fold serial dilution) were added, followed by incubation for 180 seconds. Then, 20 μL of 30 nM methacholine solution (HBSS containing 20 mM HEPES, 2.5 mM probenecid and 0.05% bovine serum albumin, BSA) was added, and fluorescence intensity was traced by the intracellular calcium influx measuring device FLIPR 96 (Molecular Devices, Inc.) for 170 seconds. The difference between the lowest and the highest values of the fluorescence intensity (FI) over the period of the measurement was used as a measured value. The percentages of inhibition by the test compounds were calculated according to the following formula from the measured value of the methacholin-added and test compound non-added sample (FIpositive), the measured value of the methacholin non-added and test compound non-added sample (FInegative), and the measured value of the methacholin-added and test compound-added sample (FItest). (%) Percentage of inhibition by test compound=[(1−(FItest−FInegative)/(FIpositive−FInegative)]×100
The 50% inhibitory concentrations (IC50 values) of test compounds were analyzed by a four-parameter logistic model using XLfit4 (IDBS, Ltd.) for the percentage of the inhibition by different concentrations of test compounds.

[2] = molecular target: T2, human β2 adrenergic receptor (Homo sapiens, UniProt P07550); experiment: Whole-cell cAMP Flashplate assay using CHO-K1 cells stably expressing human β2 adrenergic receptor; format: cell-based; settings: cAMP production
T2 construct: expressed in transfected cells; host or cells: CHO-K1
Method: The β2 adrenergic receptor, which couples to Gs proteins, activates adenylate cyclase upon agonist binding to the receptor. As a result, cAMP is produced in cells. The activation ability of the β2 adrenergic receptor can be measured by measuring the amount of the cAMP with cAMP-Screen System (Applied Biosystems).
CHO-K1 cells expressing the human β2 adrenergic receptor suspended in Ham's F-12 media containing 10% FBS were seeded into 96-well plates at a volume of 100 μL/well. Next day, they were washed with 200 μL PBS(−), to which 80 μL of 0.5 mM IBMX solution (Ham's F-12 media containing 0.05% BSA) was then added, followed by incubation for 20 minutes at 37° C. in the presence of 5% carbon dioxide. 20 μL of 9 concentrations of test compound solutions (0.5 mM IBMX solution containing 1% DMSO) prepared at concentrations in a range of 0.01-1000 nM with 2-fold serial dilution) were added, followed by incubation for 20 minutes at 37° C. in the presence of 5% carbon dioxide. Then, 100 μL of Assay/Lysis Buffer (a reagent that comes with cAMP Screen System) was added. The cells were lysed by pipetting, further incubated for 30 minutes at 37° C., and then frozen at −80° C. After several days, samples, thawed at room temperature, were treated according to the protocol of cAMP Screen System, and then chemiluminescence was measured by EnVision (PerkinElmer, Inc.). The amount of cAMP was calculated from the standard curve for the standard attached to cAMP Screen System.
The concentrations of a test compound at which 50% of its maximal effect is reached (EC50 values) were analyzed by a four-parameter logistic model using XLfit4 (IDBS, Ltd.) for the amounts of cAMP production at different concentrations of the test compounds.

T1 sequence (P20309 whole entry): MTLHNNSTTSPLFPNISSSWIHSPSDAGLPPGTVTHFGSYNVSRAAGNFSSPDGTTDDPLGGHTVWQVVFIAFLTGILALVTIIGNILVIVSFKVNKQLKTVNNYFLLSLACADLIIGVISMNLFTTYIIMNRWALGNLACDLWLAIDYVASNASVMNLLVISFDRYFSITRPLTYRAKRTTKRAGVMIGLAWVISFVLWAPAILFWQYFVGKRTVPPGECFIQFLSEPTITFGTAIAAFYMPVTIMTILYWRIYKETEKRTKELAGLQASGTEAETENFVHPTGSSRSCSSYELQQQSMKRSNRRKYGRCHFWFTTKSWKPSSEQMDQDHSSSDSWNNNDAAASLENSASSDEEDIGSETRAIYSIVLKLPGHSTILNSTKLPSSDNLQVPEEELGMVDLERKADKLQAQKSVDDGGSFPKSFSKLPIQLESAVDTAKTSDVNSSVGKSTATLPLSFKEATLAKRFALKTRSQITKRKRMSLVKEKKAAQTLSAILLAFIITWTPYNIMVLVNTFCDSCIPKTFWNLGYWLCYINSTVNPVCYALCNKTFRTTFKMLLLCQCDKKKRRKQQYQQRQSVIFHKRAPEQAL
T2 sequence (P07550 whole entry): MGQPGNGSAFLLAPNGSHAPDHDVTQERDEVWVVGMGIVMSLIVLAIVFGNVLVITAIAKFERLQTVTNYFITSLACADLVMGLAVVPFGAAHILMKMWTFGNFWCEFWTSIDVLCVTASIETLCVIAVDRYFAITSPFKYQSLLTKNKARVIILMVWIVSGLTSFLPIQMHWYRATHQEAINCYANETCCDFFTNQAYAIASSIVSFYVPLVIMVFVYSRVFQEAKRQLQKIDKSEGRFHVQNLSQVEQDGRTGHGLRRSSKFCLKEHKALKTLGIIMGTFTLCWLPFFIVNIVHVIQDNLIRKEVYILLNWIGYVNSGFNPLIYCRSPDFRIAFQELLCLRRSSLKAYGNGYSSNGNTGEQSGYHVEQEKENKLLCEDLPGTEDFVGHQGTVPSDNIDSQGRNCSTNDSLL

`C[N+]1(C)CCC(OC(=O)Nc2cc(CCCCC(=O)Nc3ccc(CNC[C@H](O)c4ccc(O)c5[nH]c(=O)ccc45)cc3)ccc2-c2ccccc2)CC1` [Example 49, 4-({[5-(4-{[4-({[(2R)-2-hydroxy-2-(8-hydroxy-2-oxo-1,2-dihydroquinolin-5-yl)ethyl]amino}methyl)phenyl]carbamoyl}butyl)-2-phenylphenyl]carbamoyl}oxy)-1,1-dimethylpiperidin-1-ium trifluoroacetate] gave an IC50 [1] of 0.0139 µM and an EC50 [2] of 0.0023 µM.
Compound `COc1cc(CNC[C@H](O)c2ccc(O)c3[nH]c(=O)ccc23)ccc1NC(=O)CCc1ccc(-c2ccccc2)c(NC(=O)O[C@@H]2C[C@@H]3[C@H]4O[C@H]4[C@H](C2)[N+]3(C)C)c1` [Example 41, (1R,2R,4S,5S,7S)-7-({[5-(2-{[4-({[(2R)-2-hydroxy-2-(8-hydroxy-2-oxo-1,2-dihydroquinolin-5-yl)ethyl]amino}methyl)-2-methoxyphenyl]carbamoyl}ethyl)-2-phenylphenyl]carbamoyl}oxy)-9,9-dimethyl-3-oxa-9-azatricyclo[3.3.1.0^2,4]nonan-9-ium trifluoroacetate] has an IC50 [1] of 0.0129 µM and an EC50 [2] of 0.0062 µM.
`C[N+]1(C)CCC(OC(=O)Nc2cc(CCC(=O)Nc3ccc(CNC[C@H](O)c4ccc(O)c5[nH]c(=O)ccc45)c(Cl)c3)ccc2-c2ccccc2)CC1` [Example 3, 4-({[5-(2-{[3-chloro-4-({[(2R)-2-hydroxy-2-(8-hydroxy-2-oxo-1,2-dihydroquinolin-5-yl)ethyl]amino}methyl)phenyl]carbamoyl}ethyl)-2-phenylphenyl]carbamoyl}oxy)-1,1-dimethylpiperidin-1-ium trifluoroacetate] was tested, and the IC50 [1] was 0.0162 µM and the EC50 [2] was 0.0097 µM.
`C[N+]1(C)CCC(OC(=O)Nc2cc(CCCC(=O)Nc3ccc(CNC[C@H](O)c4ccc(O)c5[nH]c(=O)ccc45)c(C(F)(F)F)c3)ccc2-c2ccccc2)CC1` [Example 31, 4-({[5-(3-{[4-({[(2R)-2-hydroxy-2-(8-hydroxy-2-oxo-1,2-dihydroquinolin-5-yl)ethyl]amino}methyl)-3-(trifluoromethyl)phenyl]carbamoyl}propyl)-2-phenylphenyl]carbamoyl}oxy)-1,1-dimethylpiperidin-1-ium trifluoroacetate] showed an IC50 [1] of 0.0157 µM and an EC50 [2] of 0.0251 µM.
In the case of `C[N+]1(C)CCC(OC(=O)Nc2cc(CCC(=O)Nc3ccc(CCNC[C@H](O)c4ccc(O)c5[nH]c(=O)ccc45)cc3)ccc2-c2ccccc2)CC1` [Example 63, 4-({[5-(2-{[4-(2-{[(2R)-2-hydroxy-2-(8-hydroxy-2-oxo-1,2-dihydroquinolin-5-yl)ethyl]amino}ethyl)phenyl]carbamoyl}ethyl)-2-phenylphenyl]carbamoyl}oxy)-1,1-dimethylpiperidin-1-ium trifluoroacetate], the IC50 [1] is reported as 0.0417 µM and the EC50 [2] is reported as 0.0056 µM.
`COc1cc(NC(=O)CCCc2ccc(-c3ccccc3)c(NC(=O)O[C@@H]3C[C@@H]4[C@H]5O[C@H]5[C@H](C3)[N+]4(C)C)c2)ccc1CNC[C@H](O)c1ccc(O)c2[nH]c(=O)ccc12` [Example 36, (1R,2R,4S,5S,7S)-7-({[5-(3-{[4-({[(2R)-2-hydroxy-2-(8-hydroxy-2-oxo-1,2-dihydroquinolin-5-yl)ethyl]amino}methyl)-3-methoxyphenyl]carbamoyl}propyl)-2-phenylphenyl]carbamoyl}oxy)-9,9-dimethyl-3-oxa-9-azatricyclo[3.3.1.0^2,4]nonan-9-ium trifluoroacetate] showed an IC50 [1] of 0.0271 µM and an EC50 [2] of 0.0043 µM.
Work on `C[N+]1(C)CCC(OC(=O)Nc2cc(CCCC(=O)Nc3ccc4cc(CNC[C@H](O)c5ccc(O)c6[nH]c(=O)ccc56)ccc4c3)ccc2-c2ccccc2)CC1` [Example 23, 4-({[5-(3-{[6-({[(2R)-2-hydroxy-2-(8-hydroxy-2-oxo-1,2-dihydroquinolin-5-yl)ethyl]amino}methyl)naphthalen-2-yl]carbamoyl}propyl)-2-phenylphenyl]carbamoyl}oxy)-1,1-dimethylpiperidin-1-ium trifluoroacetate] yielded an IC50 [1] of 0.0343 µM and an EC50 [2] of 0.0026 µM.
`Cc1cc(CNC[C@H](O)c2ccc(O)c3[nH]c(=O)ccc23)ccc1NC(=O)CCc1ccc(-c2ccccc2)c(NC(=O)OC2CC[N+](C)(C)CC2)c1` [Example 11, 4-({[5-(2-{[4-({[(2R)-2-hydroxy-2-(8-hydroxy-2-oxo-1,2-dihydroquinolin-5-yl)ethyl]amino}methyl)-2-methylphenyl]carbamoyl}ethyl)-2-phenylphenyl]carbamoyl}oxy)-1,1-dimethylpiperidin-1-ium trifluoroacetate] showed an IC50 [1] of 0.0097 µM and an EC50 [2] of 0.0037 µM.
With `C[N+]1(C)CCC(OC(=O)Nc2cc(CCCOCCCCCNC[C@H](O)c3ccc(O)c4[nH]c(=O)ccc34)ccc2-c2ccccc2)CC1` [Example 78, 4-{[(5-{3-[(5-{[(2R)-2-hydroxy-2-(8-hydroxy-2-oxo-1,2-dihydroquinolin-5-yl)ethyl]amino}pentyl)oxy]propyl}-2-phenylphenyl)carbamoyl]oxy}-1,1-dimethylpiperidin-1-ium trifluoroacetate] the IC50 [1] was 0.0741 µM and the EC50 [2] was 0.0013 µM.
Work on `C[N+]1(C)CCC(OC(=O)Nc2cc(CCCC(=O)Nc3ccc(CNC[C@H](O)c4ccc(O)c5[nH]c(=O)ccc45)cc3Br)ccc2-c2ccccc2)CC1` [Example 30, 4-({[5-(3-{[2-bromo-4-({[(2R)-2-hydroxy-2-(8-hydroxy-2-oxo-1,2-dihydroquinolin-5-yl)ethyl]amino}methyl)phenyl]carbamoyl}propyl)-2-phenylphenyl]carbamoyl}oxy)-1,1-dimethylpiperidin-1-ium trifluoroacetate] yielded an IC50 [1] of 0.0129 µM and an EC50 [2] of 0.0005 µM.
`COc1cc(NC(=O)CCCCc2ccc(-c3ccccc3)c(NC(=O)OC3C[C@@H]4[C@H]5O[C@H]5[C@H](C3)[N+]4(C)C)c2)c(Cl)cc1CNC[C@H](O)c1ccc(O)c2[nH]c(=O)ccc12` (stereo partly drawn) [Example 52, (1R,2R,4S,5S,7S)-7-({[5-(4-{[2-chloro-4-({[(2R)-2-hydroxy-2-(8-hydroxy-2-oxo-1,2-dihydroquinolin-5-yl)ethyl]amino}methyl)-5-methoxyphenyl]carbamoyl}butyl)-2-phenylphenyl]carbamoyl}oxy)-9,9-dimethyl-3-oxa-9-azatricyclo[3.3.1.0^2,4]nonan-9-ium trifluoro acetate] gave an IC50 [1] of 0.0328 µM and an EC50 [2] of 0.0004 µM.
In the case of `COc1cc(NC(=O)CCc2ccc(-c3ccccc3)c(NC(=O)O[C@@H]3C[C@@H]4[C@H]5O[C@H]5[C@H](C3)[N+]4(C)C)c2)ccc1CNC[C@H](O)c1ccc(O)c2[nH]c(=O)ccc12` [Example 42, (1R,2R,4S,5S,7S)-7-({[5-(2-{[4-({[(2R)-2-hydroxy-2-(8-hydroxy-2-oxo-1,2-dihydroquinolin-5-yl)ethyl]amino}methyl)-3-methoxyphenyl]carbamoyl}ethyl)-2-phenylphenyl]carbamoyl}oxy)-9,9-dimethyl-3-oxa-9-azatricyclo[3.3.1.0^2,4]nonan-9-ium trifluoroacetate], the IC50 [1] is reported as 0.0123 µM and the EC50 [2] is reported as 0.0008 µM.
